From PubChem BioAssay (NCI)
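Where inhibition never reached the appropriate level, the endpoint shown equals the highest concentration tested. Otherwise, values were interpolated linearly from a five-concentration, 48-hour dose response in 96-well plates. GI50: concentration for 50% inhibition of growth. Definition used: TGI = concentration required for complete inhibition of growth.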

Tests used:
Experiment in all cases: NCI tumour cell line growth inhibition, 48 h
[1] = system: DU-145 prostate
[2] = system: NCI-H522 lung
[3] = system: SF-268 CNS
[4] = system: HS 578T breast
[5] = system: SK-OV-3 ovarian
[6] = system: 786-0 renal
[7] = system: MDA-MB-435
[8] = system: LOX IMVI melanoma
[9] = system: HL-60(TB) leukemia
[10] = system: HOP-62 NSCLC
[11] = system: UACC-62 melanoma
[12] = system: SNB-75 CNS
[13] = system: KM12 colon
[14] = system: NCI/ADR-RES ovarian
[15] = system: NCI-H460 lung
[16] = system: SN12C renal
[17] = system: MOLT-4 leukemia
[18] = system: OVCAR-3 ovarian
[19] = system: SK-MEL-2 melanoma
[20] = system: UACC-257 melanoma
[21] = system: NCI-H226 lung
[22] = system: NCI-H23 lung
[23] = system: HT29 colon
[24] = system: MDA-MB-231 breast
[25] = system: RXF 393 renal
[26] = system: HOP-92 NSCLC
[27] = system: SK-MEL-28 melanoma
[28] = system: SK-MEL-5 melanoma
[29] = system: U251 CNS
[30] = system: SNB-19 CNS
[31] = system: EKVX NSCLC
[32] = system: IGROV1 ovarian
[33] = system: A498 renal
[34] = system: K-562 leukemia
[35] = system: ACHN renal
[36] = system: BT-549 breast
[37] = system: PC-3 prostate
[38] = system: OVCAR-8 ovarian
[39] = system: CAKI-1 renal
[40] = system: M14 melanoma
[41] = system: MCF7 breast
[42] = system: TK-10 renal
[43] = system: HCT-116 colon
[44] = system: OVCAR-5 ovarian
[45] = system: UO-31 renal
[46] = system: MALME-3M melanoma
[47] = system: RPMI-8226 leukemia
[48] = system: SF-539 CNS
[49] = system: SW-620 colon
[50] = system: HCC-2998 colon
[51] = system: CCRF-CEM leukemia
[52] = system: HCT-15 colon
[53] = system: OVCAR-4 ovarian
[54] = system: A549 NSCLC
[55] = system: COLO 205 colon
[56] = system: SF-295 CNS

## N#C/C(=C\c1ccc2c(c1)OCO2)n1nnc2ccccc21
[1]
  GI50: 1900 nM
  TGI: 13100 nM
[2]
  GI50: 270 nM
  TGI: 15200 nM
[3]
  GI50: 3220 nM
  TGI: 20500 nM
[4]
  GI50: 2530 nM
  TGI: 9360 nM
[5]
  GI50: 2610 nM
  TGI: 17000 nM
[6]
  GI50: 2010 nM
  TGI: 12900 nM
[7]
  GI50: 200 nM
  TGI: 501 nM
[8]
  GI50: 990 nM
  TGI: 25000 nM
[9]
  GI50: 330 nM
  TGI: > 100000 nM
[10]
  GI50: 2410 nM
  TGI: 14900 nM
[11]
  GI50: 450 nM
  TGI: 18500 nM
[12]
  GI50: 179 nM
  TGI: 1510 nM
[13]
  GI50: 797 nM
  TGI: > 100000 nM
[14]
  GI50: 405 nM
  TGI: 17200 nM
[15]
  GI50: 2860 nM
  TGI: > 100000 nM
[16]
  GI50: 1320 nM
  TGI: 14800 nM
[17]
  GI50: 2420 nM
  TGI: > 100000 nM
[18]
  GI50: 357 nM
  TGI: 14300 nM
[19]
  GI50: 1230 nM
  TGI: 26900 nM
[20]
  GI50: 6680 nM
  TGI: 62400 nM
[21]
  GI50: 2210 nM
  TGI: 16000 nM
[22]
  GI50: 3600 nM
  TGI: 22600 nM
[23]
  GI50: 383 nM
  TGI: > 100000 nM
[24]
  GI50: 1700 nM
  TGI: 7730 nM
[25]
  GI50: 986 nM
  TGI: 5310 nM
[26]
  GI50: 810 nM
  TGI: 3310 nM
[27]
  GI50: 1240 nM
  TGI: 17600 nM
[28]
  GI50: 1620 nM
  TGI: 12600 nM
[29]
  GI50: 1540 nM
  TGI: 21100 nM
[30]
  GI50: 1420 nM
  TGI: 13300 nM
[31]
  GI50: 1540 nM
  TGI: 16300 nM
[32]
  GI50: 716 nM
  TGI: 11800 nM
[33]
  GI50: 1760 nM
  TGI: 5280 nM
[34]
  GI50: 361 nM
  TGI: > 100000 nM
[35]
  GI50: 784 nM
  TGI: 8530 nM
[36]
  GI50: 938 nM
  TGI: 15000 nM
[37]
  GI50: 1350 nM
  TGI: 24300 nM
[38]
  GI50: 1760 nM
  TGI: > 100000 nM
[39]
  GI50: 518 nM
  TGI: 13100 nM
[40]
  GI50: 424 nM
  TGI: 23500 nM
[41]
  GI50: 417 nM
  TGI: 14100 nM
[42]
  GI50: 2200 nM
  TGI: 8550 nM
[43]
  GI50: 439 nM
  TGI: 17400 nM
[44]
  GI50: 2220 nM
  TGI: 7130 nM
[45]
  GI50: 1760 nM
  TGI: 12700 nM
[46]
  GI50: 1400 nM
  TGI: 23400 nM
[47]
  GI50: 2190 nM
  TGI: > 100000 nM
[48]
  GI50: 1480 nM
  TGI: 6270 nM
[49]
  GI50: 489 nM
  TGI: > 100000 nM
[50]
  GI50: 1860 nM
  TGI: 7230 nM
[51]
  GI50: 491 nM
  TGI: > 100000 nM
[52]
  GI50: 395 nM
  TGI: 13800 nM
[53]
  GI50: 1660 nM
  TGI: 20300 nM
[54]
  GI50: 991 nM
  TGI: 48100 nM

## CC[C@H](C)[C@H](NC(=O)C12CC(NC)(C1)C2)C(=O)N(C)[C@H](C[C@@H](OC(C)=O)c1nc(C(=O)N[C@@H](Cc2ccccc2)C[C@H](C)C(=O)OC)cs1)C(C)C
[1]
  GI50: 199 nM
  TGI: 3020 nM
[2]
  GI50: 34.6 nM
  TGI: 368 nM
[3]
  GI50: 355 nM
  TGI: > 25000 nM
[4]
  GI50: 234 nM
  TGI: 15100 nM
[55]
  GI50: 189 nM
  TGI: 1560 nM
[5]
  GI50: 786 nM
  TGI: > 25000 nM
[6]
  GI50: 237 nM
  TGI: > 11700 nM
[7]
  GI50: 29.7 nM
  TGI: 250 nM
[8]
  GI50: 209 nM
  TGI: > 25000 nM
[9]
  GI50: 55.7 nM
  TGI: 163 nM
[10]
  GI50: 542 nM
  TGI: > 25000 nM
[11]
  GI50: 84.2 nM
  TGI: > 25000 nM
[12]
  GI50: 92.8 nM
  TGI: > 25000 nM
[13]
  GI50: 179 nM
  TGI: > 17600 nM
[14]
  GI50: > 25000 nM
  TGI: > 25000 nM
[15]
  GI50: 282 nM
  TGI: > 25000 nM
[16]
  GI50: 585 nM
  TGI: > 25000 nM
[17]
  GI50: 649 nM
  TGI: > 25000 nM
[18]
  GI50: 55 nM
  TGI: 511 nM
[19]
  GI50: 171 nM
[20]
  GI50: 19800 nM
  TGI: > 25000 nM
[21]
  GI50: 1710 nM
  TGI: > 25000 nM
[22]
  GI50: 790 nM
  TGI: > 25000 nM
[23]
  GI50: 138 nM
  TGI: 1330 nM
[24]
  GI50: 576 nM
  TGI: > 25000 nM
[25]
  GI50: 160 nM
  TGI: 1220 nM
[26]
  GI50: 7170 nM
  TGI: > 25000 nM
[27]
  GI50: 2130 nM
  TGI: > 25000 nM
[28]
  GI50: 103 nM
  TGI: 999 nM
[29]
  GI50: 434 nM
  TGI: > 25000 nM
[30]
  GI50: 615 nM
  TGI: > 25000 nM
[31]
  GI50: 2130 nM
  TGI: > 25000 nM
[32]
  GI50: 181 nM
  TGI: > 25000 nM
[56]
  GI50: 401 nM
  TGI: 2170 nM
[33]
  GI50: 525 nM
  TGI: > 8000 nM
[34]
  GI50: 53.4 nM
  TGI: > 25000 nM
[35]
  GI50: 1390 nM
  TGI: > 25000 nM
[36]
  GI50: 97.2 nM
  TGI: 1020 nM
[37]
  GI50: 208 nM
  TGI: > 25000 nM
[38]
  GI50: 633 nM
  TGI: > 25000 nM
[39]
  GI50: 6420 nM
  TGI: > 25000 nM
[40]
  GI50: 237 nM
[41]
  GI50: 43.9 nM
  TGI: > 25000 nM
[42]
  GI50: 3700 nM
  TGI: > 25000 nM
[43]
  GI50: 96.9 nM
[44]
  GI50: 1520 nM
  TGI: > 25000 nM
[45]
  GI50: 1940 nM
  TGI: > 25000 nM
[46]
  GI50: 329 nM
  TGI: > 25000 nM
[47]
  GI50: 80.6 nM
  TGI: 5830 nM
[48]
  GI50: 421 nM
  TGI: 1500 nM
[49]
  GI50: 159 nM
  TGI: > 25000 nM
[50]
  GI50: 349 nM
  TGI: > 25000 nM
[51]
  GI50: 221 nM
  TGI: 2410 nM
[52]
  GI50: 1110 nM
  TGI: > 17100 nM
[53]
  GI50: 3830 nM
  TGI: > 25000 nM
[54]
  GI50: 1110 nM
  TGI: > 25000 nM
